Measured values: ChEMBL document CHEMBL3870307, “5-HT7 receptor modulators: Amino groups attached to biphenyl scaffold determine functional activity” (Eur J Med Chem, 2016)
Active and inactive are the calls of the source. The calls are words filed in the database; no cut-off is given here.

How the values were obtained:
[1] = molecular target: T1, 5-hydroxytryptamine receptor 7 (Homo sapiens, UniProt P34969); assay: Agonist activity at human 5-HT7R expressed in HEK293 cells assessed as induction of cAMP levels at 10 uM treated for 10 mins measured after 30 mins by D2-dye based fluorescence assay relative to serotonin; assay type: functional, cell-based
T1 sequence (P34969 whole entry): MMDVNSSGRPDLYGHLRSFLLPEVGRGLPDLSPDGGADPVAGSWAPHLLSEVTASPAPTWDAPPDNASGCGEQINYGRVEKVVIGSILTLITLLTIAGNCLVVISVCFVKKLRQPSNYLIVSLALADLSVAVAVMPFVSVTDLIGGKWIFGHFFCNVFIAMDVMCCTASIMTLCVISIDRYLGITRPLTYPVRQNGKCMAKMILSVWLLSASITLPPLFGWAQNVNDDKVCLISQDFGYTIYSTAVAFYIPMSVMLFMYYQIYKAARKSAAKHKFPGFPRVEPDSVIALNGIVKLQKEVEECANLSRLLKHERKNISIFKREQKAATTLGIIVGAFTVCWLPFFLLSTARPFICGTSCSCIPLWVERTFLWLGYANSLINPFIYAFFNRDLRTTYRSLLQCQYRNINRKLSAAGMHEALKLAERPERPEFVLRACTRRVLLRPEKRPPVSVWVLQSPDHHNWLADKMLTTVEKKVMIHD

[2] = molecular target: T1, 5-hydroxytryptamine receptor 7; assay: Displacement of [3H]D-lysergic acid diethylamide from 5HT7R (unknown origin) expressed in HEK293 cell membranes incubated for 1.5 hrs in absence of light by liquid scintillation counting
[3] = molecular target: T1, 5-hydroxytryptamine receptor 7; assay: Antagonist activity at human 5-HT7R expressed in HEK293 cells assessed as inhibition of serotonin stimulated cAMP levels at 10 uM preincubated for 10 mins followed by serotonin stimulation after 30 mins by D2-dye based fluorescence assay; assay type: functional, cell-based
[4] = molecular target: T1, 5-hydroxytryptamine receptor 7; assay: Antagonist activity at human 5-HT7R expressed in HEK293 cells assessed as inhibition of serotonin stimulated-cAMP levels at 100 uM preincubated for 10 mins followed by serotonin stimulation after 30 mins by D2-dye based fluorescence assay; assay type: functional, cell-based
[5] = molecular target: T1, 5-hydroxytryptamine receptor 7; assay: Antagonist activity at human 5-HT7R expressed in HEK293 cells assessed as inhibition of serotonin stimulated-cAMP levels preincubated for 10 mins followed by serotonin stimulation after 30 mins by D2-dye based fluorescence assay; assay type: functional, cell-based
[6] = molecular target: T1, 5-hydroxytryptamine receptor 7; assay: Agonist activity at human 5-HT7R expressed in HEK293 cells assessed as induction of cAMP levels treated for 10 mins measured after 30 mins by D2-dye based fluorescence assay; assay type: functional, cell-based
[7] = molecular target: T1, 5-hydroxytryptamine receptor 7; assay: Displacement of [3H]D-lysergic acid diethylamide from 5HT7R (unknown origin) expressed in CHO-K1 cell membranes incubated for 1.5 hrs in absence of light by liquid scintillation counting

Compound | Emax [1] | Ki [2] | Imax [3] | inhibition [4] | IC50 [5] | EC50 [6] | Ki [7]
COc1ccccc1-c1cc(CN2CCC(C)CC2)ccc1C | 2.53% | 1120 nM | 29% | – | – | – | –
COc1ccccc1-c1cc(CN2CCC(C)CC2)ccc1OC | -1.14% | 3060 nM | 7.74% | – | – | – | –
COc1ccccc1-c1cc(CN(C)C)ccc1Cl | 27.6% | 18 nM | 10.3% | – | – | – | –
COc1ccccc1-c1cc(CN(C)C)cc2c1OCO2 | 3.97% | 772 nM | 13.5% | – | – | – | –
COc1ccccc1-c1cc(CN2CCN(c3ccccc3OC)CC2)ccc1Cl | -7.72% | 73 nM | 91% | Active | 23100 nM | – | –
CNCc1ccc(C)c(-c2ccccc2OC)c1 | 55.5% | 15 nM | 2.49% | – | – | 3200 nM | –
CNCc1cc2c(c(-c3ccccc3OC)c1)OCO2 | 13.6% | 1480 nM | 8.4% | – | – | – | –
COc1ccccc1-c1cc(CN2CCC(C)CC2)cc2c1OCO2 | 7.6% | 691 nM | 15.6% | – | – | – | –
CNCc1ccc(OC)c(-c2ccccc2OC)c1 | 11% | 648 nM | 2.25% | – | – | – | –
COc1ccccc1-c1cc(CN2CCN(c3ccccc3OC)CC2)ccc1C | 14% | 18 nM | 69.3% | Active | 6350 nM | – | –
CC1CCN(CC[C@H]2CCCN2S(=O)(=O)c2cccc(O)c2)CC1 | – | – | 100% | – | – | – | –
CNCc1cccc(-c2ccccc2OC)c1 | 24.5% | 226 nM | -0.87% | – | – | – | –
COc1ccccc1-c1cccc(CN2CCN(c3ccccc3OC)CC2)c1 | – | – | – | – | – | – | 15 nM
CNCc1ccc(Cl)c(-c2ccccc2OC)c1 | 66.8% | 5.2 nM | 4.66% | – | – | 550 nM | –
COc1ccccc1-c1cc(CN(C)C)ccc1C | 33.3% | 23 nM | 6.61% | – | – | – | –
COc1ccccc1-c1cccc(CN(C)C)c1 | 15.4% | 126 nM | 40.8% | – | – | – | –
COc1ccccc1-c1cc(CN2CCC(C)CC2)ccc1Cl | -14.4% | 389 nM | 52.3% | – | – | – | –
COc1ccccc1-c1cc(CN(C)C)ccc1OC | 28.8% | 1020 nM | 4.54% | – | – | – | –
COc1ccccc1-c1cc(CN2CCN(c3ccccc3OC)CC2)cc2c1OCO2 | -1.56% | 34 nM | 93.7% | Active | 19800 nM | – | –
COc1ccccc1-c1cc(CN2CCN(c3ccccc3OC)CC2)ccc1OC | -2.42% | 79 nM | 91.6% | Active | 5570 nM | – | –
COc1ccccc1-c1cccc(CN2CCC(C)CC2)c1 | 8.59% | 1040 nM | 39% | – | – | – | –
